Our source for the Ki values is ChEMBL document CHEMBL1131225, “Macrocyclic amino carboxylates as selective MMP-8 inhibitors” (J Med Chem, 1998).

For one assay, the target named is Neutrophil collagenase (Homo sapiens, UniProt P22894). Briefly: Inhibition of Matrix metalloprotease-8.
Assay [1] deals with 72 kDa type IV collagenase (Homo sapiens, UniProt P08253). Briefly: Inhibition of Matrix metalloprotease-2.
For assay [2], the target named is Matrix metalloproteinase-9 (Homo sapiens, UniProt P14780). Briefly: Inhibition of Matrix metalloprotease-9.
The target in the next assay is T1, Interstitial collagenase (Homo sapiens, UniProt P03956).
T1 sequence (P03956 whole entry): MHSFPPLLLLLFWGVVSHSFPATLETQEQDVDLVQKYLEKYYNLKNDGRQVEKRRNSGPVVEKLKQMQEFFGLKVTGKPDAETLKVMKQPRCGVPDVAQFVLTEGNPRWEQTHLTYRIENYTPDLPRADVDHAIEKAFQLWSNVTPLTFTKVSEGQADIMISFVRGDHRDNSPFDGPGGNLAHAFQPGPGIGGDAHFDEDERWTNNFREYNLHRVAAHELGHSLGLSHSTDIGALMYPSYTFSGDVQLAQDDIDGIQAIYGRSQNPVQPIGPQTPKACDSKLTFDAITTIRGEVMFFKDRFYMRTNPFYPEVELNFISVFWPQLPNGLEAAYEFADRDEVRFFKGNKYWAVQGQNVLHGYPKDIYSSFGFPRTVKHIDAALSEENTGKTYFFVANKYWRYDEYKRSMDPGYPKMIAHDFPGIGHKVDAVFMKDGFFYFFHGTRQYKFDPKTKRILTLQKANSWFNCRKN
Briefly: Inhibition of Matrix metalloprotease-1.

The next assay concerns the target Stromelysin-1 (Homo sapiens, UniProt P08254). Briefly: Inhibition of Matrix metalloprotease-3.

Stromelysin-1, sequence (P08254 whole entry): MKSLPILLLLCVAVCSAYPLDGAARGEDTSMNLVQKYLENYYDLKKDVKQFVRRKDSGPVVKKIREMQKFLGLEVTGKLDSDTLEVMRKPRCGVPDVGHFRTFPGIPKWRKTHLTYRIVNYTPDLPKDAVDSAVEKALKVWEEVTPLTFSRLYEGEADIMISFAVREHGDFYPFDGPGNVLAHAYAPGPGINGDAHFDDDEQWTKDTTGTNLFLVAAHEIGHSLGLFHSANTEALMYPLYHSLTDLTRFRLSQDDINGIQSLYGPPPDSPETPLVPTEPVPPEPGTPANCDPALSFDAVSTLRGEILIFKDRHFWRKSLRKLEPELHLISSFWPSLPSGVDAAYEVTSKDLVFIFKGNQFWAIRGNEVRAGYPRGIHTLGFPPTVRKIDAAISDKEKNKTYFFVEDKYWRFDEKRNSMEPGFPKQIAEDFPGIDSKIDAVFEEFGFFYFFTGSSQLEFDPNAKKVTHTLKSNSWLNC
Matrix metalloproteinase-9, sequence (P14780 whole entry): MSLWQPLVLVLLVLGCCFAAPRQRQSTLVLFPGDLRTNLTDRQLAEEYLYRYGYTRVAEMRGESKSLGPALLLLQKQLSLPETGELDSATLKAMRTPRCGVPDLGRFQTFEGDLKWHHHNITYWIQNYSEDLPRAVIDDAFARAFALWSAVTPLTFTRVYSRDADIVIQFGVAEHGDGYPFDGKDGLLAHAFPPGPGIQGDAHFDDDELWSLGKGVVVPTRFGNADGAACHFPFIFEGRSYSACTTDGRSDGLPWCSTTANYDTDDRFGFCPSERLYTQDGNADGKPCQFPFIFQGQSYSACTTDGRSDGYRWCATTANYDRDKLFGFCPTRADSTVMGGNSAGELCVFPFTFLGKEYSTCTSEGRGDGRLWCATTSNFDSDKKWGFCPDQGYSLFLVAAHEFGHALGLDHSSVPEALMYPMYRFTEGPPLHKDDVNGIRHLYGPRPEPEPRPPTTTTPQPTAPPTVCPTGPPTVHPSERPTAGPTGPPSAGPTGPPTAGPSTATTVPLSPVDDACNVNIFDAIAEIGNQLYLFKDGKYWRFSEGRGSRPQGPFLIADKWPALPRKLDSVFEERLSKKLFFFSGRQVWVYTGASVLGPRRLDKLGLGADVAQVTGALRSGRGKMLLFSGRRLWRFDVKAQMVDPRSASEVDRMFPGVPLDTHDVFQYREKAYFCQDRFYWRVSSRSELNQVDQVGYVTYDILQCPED
72 kDa type IV collagenase, sequence (P08253 whole entry): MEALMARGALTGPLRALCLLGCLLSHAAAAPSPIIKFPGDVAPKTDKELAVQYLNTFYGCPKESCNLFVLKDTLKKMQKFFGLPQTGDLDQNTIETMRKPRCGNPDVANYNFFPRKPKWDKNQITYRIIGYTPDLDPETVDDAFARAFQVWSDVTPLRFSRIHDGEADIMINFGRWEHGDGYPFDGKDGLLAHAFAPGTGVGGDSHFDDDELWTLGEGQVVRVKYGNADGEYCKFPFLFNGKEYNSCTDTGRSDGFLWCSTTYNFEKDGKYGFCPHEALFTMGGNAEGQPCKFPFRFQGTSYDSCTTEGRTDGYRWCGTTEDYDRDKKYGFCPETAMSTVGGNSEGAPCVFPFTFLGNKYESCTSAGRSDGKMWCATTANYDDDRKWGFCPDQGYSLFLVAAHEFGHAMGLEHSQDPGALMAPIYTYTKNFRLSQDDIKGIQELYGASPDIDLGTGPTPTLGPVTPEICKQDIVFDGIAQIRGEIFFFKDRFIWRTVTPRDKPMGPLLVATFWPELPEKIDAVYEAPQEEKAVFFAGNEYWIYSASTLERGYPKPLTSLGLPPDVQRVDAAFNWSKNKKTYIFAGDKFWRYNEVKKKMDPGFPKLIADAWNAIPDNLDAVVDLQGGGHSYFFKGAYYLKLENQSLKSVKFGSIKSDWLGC
Neutrophil collagenase, sequence (P22894 whole entry): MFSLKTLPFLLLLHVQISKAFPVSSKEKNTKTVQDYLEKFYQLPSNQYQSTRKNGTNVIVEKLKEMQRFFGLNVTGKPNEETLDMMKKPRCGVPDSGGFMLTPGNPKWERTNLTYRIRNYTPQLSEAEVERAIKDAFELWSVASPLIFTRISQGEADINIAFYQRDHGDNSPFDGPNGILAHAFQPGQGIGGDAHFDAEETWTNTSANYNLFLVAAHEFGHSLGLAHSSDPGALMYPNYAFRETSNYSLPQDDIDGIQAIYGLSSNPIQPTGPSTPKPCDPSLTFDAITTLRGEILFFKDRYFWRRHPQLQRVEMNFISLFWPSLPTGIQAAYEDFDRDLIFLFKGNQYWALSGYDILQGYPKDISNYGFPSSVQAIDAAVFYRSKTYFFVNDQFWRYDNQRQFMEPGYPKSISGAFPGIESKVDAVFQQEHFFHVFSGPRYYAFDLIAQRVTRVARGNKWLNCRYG

For the compound `CNC(=O)[C@@H]1CCCCNC(=O)CC[C@H](C(=O)O)N[C@@H](CCc2ccc(-c3ccccc3)cc2)C(=O)N1`, the Ki (as a rule, a measure of affinity in units of concentration, obtained from inhibition or displacement) at Neutrophil collagenase was 9 nM; in assay [1], 249 nM; in assay [2], 288 nM; on Interstitial collagenase, 1450 nM; on Stromelysin-1, 2400 nM.

In the case of `CNC(=O)CC[C@@H](N[C@@H](CCc1ccccc1)C(=O)N[C@@H](CCCCNC(C)=O)C(=O)NC)C(=O)O`, the Ki at Neutrophil collagenase is 293 nM; in assay [1], 1530 nM; in assay [2], 404 nM; on Stromelysin-1 it was 14100 nM.

As for `CNC(=O)[C@@H]1CCCCNC(=O)C[C@H](C(=O)O)N[C@@H](CCc2ccccc2)C(=O)N1`, the Ki at Neutrophil collagenase amounted to 531 nM; in assay [1], 2400 nM; in assay [2], 9800 nM; on Interstitial collagenase it was 900 nM; on Stromelysin-1, 35000 nM.

On to `CNC(=O)[C@@H]1CCC(=O)OCCNC(=O)CC[C@H](C(=O)O)N[C@@H](CCc2ccccc2)C(=O)N1`, for which the Ki at Neutrophil collagenase worked out at 10 nM; in assay [1], 238 nM; in assay [2], 5800 nM; on Interstitial collagenase, 8400 nM; on Stromelysin-1, 2900 nM.

Turning to `CNC(=O)[C@@H]1CCCCNC(=O)CC[C@H](C(=O)O)N[C@@H](CCc2ccccc2)C(=O)N1`, the Ki on Neutrophil collagenase is 17 nM; in assay [1], 8100 nM; in assay [2], 6600 nM; at Stromelysin-1 it was 13500 nM.
